Test system: Histamin-H2-Rezeptoren
Assay: Inhibition of histamine-stimulated gastric acid secretion in the conscious fistula cat
Format: in vivo
Details: wache Fistelkatze; Stimulator: Histamin; i.V.
Excerpt: Weiterhin kann die H2-antagonistische Wirkung an wachen Heidennain-Pouch-Hunden nach der Methode von Black et al., "Nature" 236, 385 (1972) und an wachen Fistelkatzen gezeigt werden.

SMILES: CN=C(NC#N)NCCSCc1nc[nH]c1C [CIMETIDIN, Cimetidin]
- ID50: 1,4 umol/k^g
